In PMC5485393, “Tailored chondroitin sulfate glycomimetics via a tunable multivalent scaffold for potentiating NGF/TrkA-induced neurogenesis” (Chemical Science, 2014):

Molecular target: NGF (Homo sapiens, UniProt P01138)
Assay: SPR (Biacore T100) kinetic analysis of NGF binding to immobilized glycopeptides
Settings: for kon: read-out: association rate constant ka of NGF binding (SPR), SEM
Procedure: SPR technology was employed to facilitate quantitative, real-time kinetic analysis of glycopeptide–NGF binding. Biotinylated glycopeptides and CS-E polysaccharides were immobilized on streptavidin-coated surface at normalized levels by molecular weights, and the interactions with NGF were investigated as a function of NGF concentration.
Surface Plasmon Resonance (SPR): Affinity measurements were performed using a Biacore T100
system (GE Healthcare). The CM5 sensor chip was used for all measurements. The sensor was primed
with HBS-EP+ (10 mM HEPES pH 7.4, 150 mM NaCl, 3.4 mM EDTA, 0.005% P20, GE Healthcare)
buffer and was activated using amine coupling through 1:1 mixture of 0.4 M EDC and 0.1 M NHS.
Streptavidin solution (0.008mg/ml) in Acetate 5.0 buffer (GE Healthcare) was used and remaining
activated groups were blocked with 1 M solution of ethanolamine (pH 8.5). The final amount of
streptavidin covalently immobilized on the surface was typically 700 RU. Flow cell 1 (or 3) was used as a
reference to subtract nonspecific binding, drift, and the bulk refractive index, while flow cell 2 (or 4) was
further immobilized with either glycopeptides or CS-E polysaccharides. Either biotinylated glycopeptides
or CS-E polysaccharides (20 nM) were dissolved in HBS-EP+ buffer and were injected to flow cell 2 (or
4) at 30 µL/min until the baseline response increased by 104, 127, and 110 RU, for glycopeptide 5, 1, and
CS-E polysaccharides, respectively. For a given affinity measurement, these series of peptide solutions
were successively injected into the flow cells for 240 seconds of contact time and 800 seconds of
dissociation time using a flow rate of 50 μL/min at 25 °C. Flow cell was regenerated using 2.5 M MgCl2
at 30 μL/min. Association (ka) and dissociation (kd) rate constants were calculated with a 1:1 binding
model using Biacore evaluation software, and KD values were calculated from the ratio of kd to ka. Kinetic

Sequence of NGF (P01138 122-241): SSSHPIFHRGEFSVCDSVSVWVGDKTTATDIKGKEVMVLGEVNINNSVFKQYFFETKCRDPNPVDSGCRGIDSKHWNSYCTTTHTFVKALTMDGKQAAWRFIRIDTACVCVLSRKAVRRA

`COC(=O)[C@@H]1C[C@@H](n2cc(CO[C@@H]3O[C@H](COS(=O)(=O)O)[C@H](OS(=O)(=O)O)[C@H](O[C@@H]4O[C@H](C(=O)O)[C@@H](O)[C@H](O)[C@H]4O)[C@H]3NC(C)=O)nn2)CN1C(=O)[C@@H]1C[C@@H](n2cc(CO[C@@H]3O[C@H](COS(=O)(=O)O)[C@H](OS(=O)(=O)O)[C@H](O[C@@H]4O[C@H](C(=O)O)[C@@H](O)[C@H](O)[C@H]4O)[C@H]3NC(C)=O)nn2)CN1C(=O)[C@@H]1C[C@@H](n2cc(CO[C@@H]3O[C@H](COS(=O)(=O)O)[C@H](OS(=O)(=O)O)[C@H](O[C@@H]4O[C@H](C(=O)O)[C@@H](O)[C@H](O)[C@H]4O)[C@H]3NC(C)=O)nn2)CN1C(=O)[C@@H]1C[C@@H](n2cc(CO[C@@H]3O[C@H](COS(=O)(=O)O)[C@H](OS(=O)(=O)O)[C@H](O[C@@H]4O[C@H](C(=O)O)[C@@H](O)[C@H](O)[C@H]4O)[C@H]3NC(C)=O)nn2)CN1C(=O)[C@@H]1C[C@@H](n2cc(CO[C@@H]3O[C@H](COS(=O)(=O)O)[C@H](OS(=O)(=O)O)[C@H](O[C@@H]4O[C@H](C(=O)O)[C@@H](O)[C@H](O)[C@H]4O)[C@H]3NC(C)=O)nn2)CN1C(=O)[C@@H]1C[C@@H](n2cc(CO[C@@H]3O[C@H](COS(=O)(=O)O)[C@H](OS(=O)(=O)O)[C@H](O[C@@H]4O[C@H](C(=O)O)[C@@H](O)[C@H](O)[C@H]4O)[C@H]3NC(C)=O)nn2)CN1C(=O)[C@@H]1C[C@@H](n2cc(CO[C@@H]3O[C@H](COS(=O)(=O)O)[C@H](OS(=O)(=O)O)[C@H](O[C@@H]4O[C@H](C(=O)O)[C@@H](O)[C@H](O)[C@H]4O)[C@H]3NC(C)=O)nn2)CN1C(=O)[C@@H]1C[C@@H](n2cc(CO[C@@H]3O[C@H](COS(=O)(=O)O)[C@H](OS(=O)(=O)O)[C@H](O[C@@H]4O[C@H](C(=O)O)[C@@H](O)[C@H](O)[C@H]4O)[C@H]3NC(C)=O)nn2)CN1C(=O)[C@@H]1C[C@@H](n2cc(CO[C@@H]3O[C@H](COS(=O)(=O)O)[C@H](OS(=O)(=O)O)[C@H](O[C@@H]4O[C@H](C(=O)O)[C@@H](O)[C@H](O)[C@H]4O)[C@H]3NC(C)=O)nn2)CN1C(=O)[C@@H]1C[C@@H](n2cc(CO[C@@H]3O[C@H](COS(=O)(=O)O)[C@H](OS(=O)(=O)O)[C@H](O[C@@H]4O[C@H](C(=O)O)[C@@H](O)[C@H](O)[C@H]4O)[C@H]3NC(C)=O)nn2)CN1C(=O)[C@@H]1C[C@@H](n2cc(CO[C@@H]3O[C@H](COS(=O)(=O)O)[C@H](OS(=O)(=O)O)[C@H](O[C@@H]4O[C@H](C(=O)O)[C@@H](O)[C@H](O)[C@H]4O)[C@H]3NC(C)=O)nn2)CN1C(=O)[C@@H]1C[C@@H](n2cc(CO[C@@H]3O[C@H](COS(=O)(=O)O)[C@H](OS(=O)(=O)O)[C@H](O[C@@H]4O[C@H](C(=O)O)[C@@H](O)[C@H](O)[C@H]4O)[C@H]3NC(C)=O)nn2)CN1C(=O)CCOCCOCCOCCOCCOCCOCCOCCOCCOCCOCCOCCOCCNC(=O)CCCC[C@@H]1SC[C@@H]2NC(=O)N[C@@H]21` [compound 1] was tested, and the Kd was 3570 nM and the kon was 346 M⁻¹ s⁻¹.
`COC(=O)[C@@H]1C[C@@H](n2cc(CO[C@@H]3O[C@H](COS(=O)(=O)O)[C@H](OS(=O)(=O)O)[C@H](O[C@@H]4O[C@H](C(=O)O)[C@@H](O)[C@H](O)[C@H]4O)[C@H]3NC(C)=O)nn2)CN1C(=O)[C@@H]1CCCN1C(=O)[C@@H]1CCCN1C(=O)[C@@H]1C[C@@H](n2cc(CO[C@@H]3O[C@H](COS(=O)(=O)O)[C@H](OS(=O)(=O)O)[C@H](O[C@@H]4O[C@H](C(=O)O)[C@@H](O)[C@H](O)[C@H]4O)[C@H]3NC(C)=O)nn2)CN1C(=O)[C@@H]1CCCN1C(=O)[C@@H]1CCCN1C(=O)[C@@H]1C[C@@H](n2cc(CO[C@@H]3O[C@H](COS(=O)(=O)O)[C@H](OS(=O)(=O)O)[C@H](O[C@@H]4O[C@H](C(=O)O)[C@@H](O)[C@H](O)[C@H]4O)[C@H]3NC(C)=O)nn2)CN1C(=O)[C@@H]1CCCN1C(=O)[C@@H]1CCCN1C(=O)[C@@H]1C[C@@H](n2cc(CO[C@@H]3O[C@H](COS(=O)(=O)O)[C@H](OS(=O)(=O)O)[C@H](O[C@@H]4O[C@H](C(=O)O)[C@@H](O)[C@H](O)[C@H]4O)[C@H]3NC(C)=O)nn2)CN1C(=O)[C@@H]1CCCN1C(=O)[C@@H]1CCCN1C(=O)[C@@H]1C[C@@H](n2cc(CO[C@@H]3O[C@H](COS(=O)(=O)O)[C@H](OS(=O)(=O)O)[C@H](O[C@@H]4O[C@H](C(=O)O)[C@@H](O)[C@H](O)[C@H]4O)[C@H]3NC(C)=O)nn2)CN1C(=O)[C@@H]1CCCN1C(=O)[C@@H]1CCCN1C(=O)[C@@H]1C[C@@H](n2cc(CO[C@@H]3O[C@H](COS(=O)(=O)O)[C@H](OS(=O)(=O)O)[C@H](O[C@@H]4O[C@H](C(=O)O)[C@@H](O)[C@H](O)[C@H]4O)[C@H]3NC(C)=O)nn2)CN1C(=O)[C@@H]1CCCN1C(=O)[C@@H]1CCCN1C(=O)[C@@H]1C[C@@H](n2cc(CO[C@@H]3O[C@H](COS(=O)(=O)O)[C@H](OS(=O)(=O)O)[C@H](O[C@@H]4O[C@H](C(=O)O)[C@@H](O)[C@H](O)[C@H]4O)[C@H]3NC(C)=O)nn2)CN1C(=O)[C@@H]1CCCN1C(=O)[C@@H]1CCCN1C(=O)[C@@H]1C[C@@H](n2cc(CO[C@@H]3O[C@H](COS(=O)(=O)O)[C@H](OS(=O)(=O)O)[C@H](O[C@@H]4O[C@H](C(=O)O)[C@@H](O)[C@H](O)[C@H]4O)[C@H]3NC(C)=O)nn2)CN1C(=O)[C@@H]1CCCN1C(=O)[C@@H]1CCCN1C(=O)[C@@H]1C[C@@H](n2cc(CO[C@@H]3O[C@H](COS(=O)(=O)O)[C@H](OS(=O)(=O)O)[C@H](O[C@@H]4O[C@H](C(=O)O)[C@@H](O)[C@H](O)[C@H]4O)[C@H]3NC(C)=O)nn2)CN1C(=O)[C@@H]1CCCN1C(=O)[C@@H]1CCCN1C(=O)[C@@H]1C[C@@H](n2cc(CO[C@@H]3O[C@H](COS(=O)(=O)O)[C@H](OS(=O)(=O)O)[C@H](O[C@@H]4O[C@H](C(=O)O)[C@@H](O)[C@H](O)[C@H]4O)[C@H]3NC(C)=O)nn2)CN1C(=O)[C@@H]1CCCN1C(=O)[C@@H]1CCCN1C(=O)[C@@H]1C[C@@H](n2cc(CO[C@@H]3O[C@H](COS(=O)(=O)O)[C@H](OS(=O)(=O)O)[C@H](O[C@@H]4O[C@H](C(=O)O)[C@@H](O)[C@H](O)[C@H]4O)[C@H]3NC(C)=O)nn2)CN1C(=O)[C@@H]1CCCN1C(=O)[C@@H]1CCCN1C(=O)[C@@H]1C[C@@H](n2cc(CO[C@@H]3O[C@H](COS(=O)(=O)O)[C@H](OS(=O)(=O)O)[C@H](O[C@@H]4O[C@H](C(=O)O)[C@@H](O)[C@H](O)[C@H]4O)[C@H]3NC(C)=O)nn2)CN1C(=O)[C@@H]1CCCN1C(=O)[C@@H]1CCCN1C(=O)CCOCCOCCOCCOCCOCCOCCOCCOCCOCCOCCOCCOCCNC(=O)CCCC[C@@H]1SC[C@@H]2NC(=O)N[C@@H]21` [compound 5] showed a Kd of 146 nM and a kon of 13400 M⁻¹ s⁻¹.
